Toxic doses and inconclusive results are not listed. Cut-off read from the data, not from the text of the source: active = T/C of 150% or more; inactive = T/C below 125%.
System: L1210 leukemia ip in BDF1 mice, survival T/C
Experiment: NCI In Vivo Anticancer Drug Screen. Data for tumor model L1210 Leukemia (intraperitoneal) in B6D2F1 (BDF1) mice
Details: higher = longer survival
How it was run: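 Value reflects the ratio of survival in compound-treated mice to survival in vehicle-treated controls, with both groups carrying the same transplanted tumor.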

[1] = endpoint: mean survival time, dose: 12.5 mg/kg/injection, schedule: Q01DX009 (ip), vehicle: saline
[2] = endpoint: mean survival time, dose: 25.0 mg/kg/injection, schedule: Q01DX009 (ip), vehicle: saline
[3] = endpoint: mean survival time, dose: 50.0 mg/kg/injection, schedule: Q01DX009 (ip), vehicle: saline
[4] = endpoint: mean survival time, dose: 100.0 mg/kg/injection, schedule: Q01DX001 (ip), vehicle: Klucel (hydroxypropylcellulose) (HPC)
[5] = endpoint: mean survival time, dose: 100.0 mg/kg/injection, schedule: Q04DX003 (ip), vehicle: Klucel (hydroxypropylcellulose) (HPC)
[6] = endpoint: mean survival time, dose: 200.0 mg/kg/injection, schedule: Q01DX001 (ip), vehicle: Klucel (hydroxypropylcellulose) (HPC)
[7] = endpoint: mean survival time, dose: 200.0 mg/kg/injection, schedule: Q04DX003 (ip), vehicle: Klucel (hydroxypropylcellulose) (HPC)
[8] = endpoint: mean survival time, dose: 400.0 mg/kg/injection, schedule: Q01DX001 (ip), vehicle: Klucel (hydroxypropylcellulose) (HPC)
[9] = endpoint: mean survival time, dose: 400.0 mg/kg/injection, schedule: Q04DX003 (ip), vehicle: Klucel (hydroxypropylcellulose) (HPC)
[10] = endpoint: mean survival time, dose: 75.0 mg/kg/injection, schedule: Q01DX001 (ip), vehicle: saline
[11] = endpoint: mean survival time, dose: 150.0 mg/kg/injection, schedule: Q01DX001 (ip), vehicle: saline
[12] = endpoint: mean survival time, dose: 300.0 mg/kg/injection, schedule: Q01DX001 (ip), vehicle: saline
[13] = endpoint: mean survival time, dose: 100.0 mg/kg/injection, schedule: Q01DX009 (ip), vehicle: Klucel (hydroxypropylcellulose) (HPC)
[14] = endpoint: mean survival time, dose: 100.0 mg/kg/injection, schedule: Q04DX003 (ip), vehicle: saline
[15] = endpoint: mean survival time, dose: 200.0 mg/kg/injection, schedule: Q04DX003 (ip), vehicle: saline
[16] = endpoint: mean survival time, dose: 400.0 mg/kg/injection, schedule: Q04DX003 (ip), vehicle: saline
[17] = endpoint: mean survival time, dose: 100.0 mg/kg/injection, schedule: Q01DX001 (ip), vehicle: carboxymethylcellulose (CMC)
[18] = endpoint: mean survival time, dose: 100.0 mg/kg/injection, schedule: Q01DX001 (ip), vehicle: saline
[19] = endpoint: mean survival time, dose: 200.0 mg/kg/injection, schedule: Q01DX001 (ip), vehicle: saline

Measured: T/C

CCCC(=O)Nc1ncnc2c1ncn2C1OC2COP(=O)(O)OC2C1OC(=O)CCC (stereo unspecified)
inactive: [1] 105 % of control | [2] 104 % of control | [3] 102 % of control | endpoint: mean survival time, dose: 100.0 mg/kg/injection, schedule: Q01DX009 (ip), vehicle: saline 102 % of control | endpoint: mean survival time, dose: 200.0 mg/kg/injection, schedule: Q01DX009 (ip), vehicle: saline 100 % of control | endpoint: mean survival time, dose: 400.0 mg/kg/injection, schedule: Q01DX009 (ip), vehicle: saline 104 % of control | endpoint: median survival time, dose: 25.0 mg/kg/injection, schedule: Q01DX009 (ip), vehicle: saline 100 % of control | endpoint: median survival time, dose: 50.0 mg/kg/injection, schedule: Q01DX001 (ip), vehicle: saline 100 % of control | endpoint: median survival time, dose: 50.0 mg/kg/injection, schedule: Q01DX009 (ip), vehicle: saline 100 % of control | endpoint: median survival time, dose: 100.0 mg/kg/injection, schedule: Q01DX001 (ip), vehicle: saline 100 % of control | endpoint: median survival time, dose: 100.0 mg/kg/injection, schedule: Q01DX009 (ip), vehicle: saline 100 % of control | endpoint: median survival time, dose: 200.0 mg/kg/injection, schedule: Q01DX001 (ip), vehicle: saline 100 % of control | endpoint: median survival time, dose: 200.0 mg/kg/injection, schedule: Q01DX009 (ip), vehicle: saline 100 % of control | endpoint: median survival time, dose: 400.0 mg/kg/injection, schedule: Q01DX001 (ip), vehicle: saline 100 % of control | endpoint: median survival time, dose: 400.0 mg/kg/injection, schedule: Q01DX009 (ip), vehicle: saline 100 % of control

NC(N)=Nc1ccc(Cc2ccc(N=C(N)N)cc2)cc1
inactive: endpoint: mean survival time, dose: 12.5 mg/kg/injection, schedule: Q01DX Z (oral), vehicle: saline 105 % of control | endpoint: mean survival time, dose: 25.0 mg/kg/injection, schedule: Q01DX Z (oral), vehicle: saline 103 % of control | endpoint: mean survival time, dose: 50.0 mg/kg/injection, schedule: Q01DX Z (oral), vehicle: saline 94 % of control | endpoint: mean survival time, dose: 100.0 mg/kg/injection, schedule: Q01DX Z (oral), vehicle: saline 93 % of control

Cc1ccc(NNS(=O)(=O)c2cccc([N+](=O)[O-])c2)c(Br)c1
inactive: [4] 96 % of control | [5] 102 % of control | [6] 94 % of control | [7] 96 % of control | [8] 100 % of control | [9] 96 % of control

CC1(C)N=C(N)N=C(N)N1c1ccc(OCCNC(=O)c2ccc(S(=O)(=O)F)cc2)c(Cl)c1
inactive: endpoint: mean survival time, dose: 18.75 mg/kg/injection, schedule: Q04DX003 (ip), vehicle: saline with Tween-80 103 % of control | endpoint: mean survival time, dose: 37.5 mg/kg/injection, schedule: Q04DX003 (ip), vehicle: saline with Tween-80 108 % of control | endpoint: mean survival time, dose: 75.0 mg/kg/injection, schedule: Q04DX003 (ip), vehicle: saline with Tween-80 104 % of control

O=C(c1ccc(Br)cc1)C1SC2(C(=O)c3ccc(Br)cc3)SC(C(=O)c3ccc(Br)cc3)C(C(=O)c3ccc(Br)cc3)SC2(C(=O)c2ccc(Br)cc2)SC1C(=O)c1ccc(Br)cc1 (stereo unspecified)
inactive: [10] 100 % of control | [11] 94 % of control | [12] 94 % of control

CCNC(Cc1ccccc1)c1ccco1 (stereo unspecified)
inactive: endpoint: mean survival time, dose: 50.0 mg/kg/injection, schedule: Q01DX009 (ip), vehicle: Klucel (hydroxypropylcellulose) (HPC) 109 % of control | [13] 104 % of control

Cc1ccc(-c2nc3ncnc(N)c3[nH]2)cc1N
inactive: [14] 89 % of control | [15] 94 % of control | [16] 94 % of control

Cc1ccc(S(=O)C(c2ccccc2)C(c2ccccc2)C(C)O)cc1 (stereo unspecified)
inactive: endpoint: mean survival time, dose: 100.0 mg/kg/injection, schedule: Q01DX009 (ip), vehicle: saline with Tween-80 89 % of control | endpoint: mean survival time, dose: 200.0 mg/kg/injection, schedule: Q01DX009 (ip), vehicle: saline with Tween-80 89 % of control | endpoint: mean survival time, dose: 400.0 mg/kg/injection, schedule: Q01DX009 (ip), vehicle: saline with Tween-80 91 % of control

c1ccc(C2=NC(c3ccccc3)C(c3ccccc3)N2)cc1 (stereo unspecified)
inactive: [4] 97 % of control | [6] 94 % of control | [8] 89 % of control

COC1=C(Nc2cccc(C)c2)C(=O)C(OC)=C(Nc2cccc(C)c2)C1=O
inactive: endpoint: mean survival time, dose: 50.0 mg/kg/injection, schedule: Q01DX001 (ip), vehicle: carboxymethylcellulose (CMC) 94 % of control | [17] 96 % of control | endpoint: mean survival time, dose: 200.0 mg/kg/injection, schedule: Q01DX001 (ip), vehicle: carboxymethylcellulose (CMC) 94 % of control | endpoint: mean survival time, dose: 400.0 mg/kg/injection, schedule: Q01DX001 (ip), vehicle: carboxymethylcellulose (CMC) 91 % of control

Cc1cc(=O)cc(C(=O)O)o1
inactive: [10] 107 % of control | [11] 107 % of control | [12] 109 % of control

CCC(CCC(C)C1CCC2C3CC=C4CC(OC(=O)Nc5ccc(Cl)cc5)CCC4(C)C3CCC12C)C(C)C (stereo unspecified)
inactive: endpoint: mean survival time, dose: 100.0 mg/kg/injection, schedule: Q04DX002 (ip), vehicle: saline with Tween-80 91 % of control | endpoint: mean survival time, dose: 200.0 mg/kg/injection, schedule: Q04DX002 (ip), vehicle: saline with Tween-80 97 % of control | endpoint: mean survival time, dose: 400.0 mg/kg/injection, schedule: Q04DX002 (ip), vehicle: saline with Tween-80 94 % of control

CCOC(=O)C(NC(=O)c1ccccc1)C(=O)OCC
inactive: endpoint: mean survival time, dose: 50.0 mg/kg/injection, schedule: Q01DX001 (ip), vehicle: saline 96 % of control | [18] 96 % of control | [19] 96 % of control | endpoint: mean survival time, dose: 400.0 mg/kg/injection, schedule: Q01DX001 (ip), vehicle: saline 96 % of control

O=[N+]([O-])c1cccc(C=Nc2ccccc2)c1
inactive: [5] 112 % of control | [7] 96 % of control | [9] 96 % of control

O=C(Nc1ccccc1)OC1CC=CC1
inactive: [14] 90 % of control | [15] 92 % of control | [16] 103 % of control

C[N+](C)(Cc1ccc(F)cc1)C1c2ccccc2-c2ccccc21
inactive: endpoint: mean survival time, dose: 6.25 mg/kg/injection, schedule: Q04DX003 (ip), vehicle: saline with Tween-80 90 % of control | endpoint: mean survival time, dose: 25.0 mg/kg/injection, schedule: Q04DX003 (ip), vehicle: saline with Tween-80 89 % of control

CC(C)(C(=O)O)C(=O)O
inactive: [18] 103 % of control | [19] 106 % of control

CC(=O)N(C)c1ccc(S(=O)(=O)F)cc1
inactive: [4] 103 % of control | [6] 103 % of control

O=C(C(=O)c1cccc(CC(O)(C(F)(F)F)C(F)(F)F)n1)c1cccc(CC(O)(C(F)(F)F)C(F)(F)F)n1
inactive: [13] 91 % of control | [14] 95 % of control | endpoint: mean survival time, dose: 200.0 mg/kg/injection, schedule: Q01DX009 (ip), vehicle: Klucel (hydroxypropylcellulose) (HPC) 96 % of control | [15] 97 % of control | endpoint: mean survival time, dose: 400.0 mg/kg/injection, schedule: Q01DX009 (ip), vehicle: Klucel (hydroxypropylcellulose) (HPC) 93 % of control | [16] 103 % of control

CC(c1c[nH]c2ccccc12)N1CCCCC1 (stereo unspecified)
inactive: [1] 115 % of control | [2] 107 % of control | endpoint: mean survival time, dose: 25.0 mg/kg/injection, schedule: Q04DX003 (ip), vehicle: acetone 103 % of control | [3] 109 % of control | endpoint: mean survival time, dose: 50.0 mg/kg/injection, schedule: Q04DX003 (ip), vehicle: acetone 95 % of control | [17] 96 % of control

C1CC[N+]2(CC1)CCC2
inactive: endpoint: mean survival time, dose: 12.0 mg/kg/injection, schedule: Q04DX003 (ip), vehicle: saline 106 % of control | [1] 97 % of control | [2] 100 % of control | endpoint: mean survival time, dose: 25.0 mg/kg/injection, schedule: Q04DX003 (ip), vehicle: saline 94 % of control | [3] 100 % of control | endpoint: mean survival time, dose: 50.0 mg/kg/injection, schedule: Q04DX003 (ip), vehicle: saline 111 % of control | [18] 107 % of control | [19] 115 % of control

CC(=O)C12OC(C)(C)OC1CC1C3CCC4=CC(=O)C=CC4(C)C3(F)C(O)CC12C (stereo unspecified)
inactive: endpoint: mean survival time, dose: 12.5 mg/kg/injection, schedule: Q04DX002 (ip), vehicle: Klucel (hydroxypropylcellulose) (HPC) 104 % of control | endpoint: mean survival time, dose: 25.0 mg/kg/injection, schedule: Q04DX002 (ip), vehicle: Klucel (hydroxypropylcellulose) (HPC) 107 % of control | endpoint: mean survival time, dose: 50.0 mg/kg/injection, schedule: Q04DX002 (ip), vehicle: Klucel (hydroxypropylcellulose) (HPC) 107 % of control

Source: PubChem BioAssay AID248 (DTP/NCI, 2004)
